From PubChem BioAssay AID1963844 (Molecular Pharmacology Branch, DTP, NCI, 2024)

System: 422866-222-R5-J1-PDC complex spheroid viability
Test: Anticancer human tumor 422866-222-R5-J1-PDC patient-derived pancreatic adenocarcinoma cell line growth inhibition [POLQ]
Conditions: for IC50: curve of first compound; for viability, T/C: stronger effect = lower value
Procedure, shortened: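 Patient-derived tumour cells were co-cultured with HUVEC and mesenchymal stem cells as multicellular spheroids at 37 °C. They were treated with POLQ inhibitors (novobiocin, ART-558, RP6685) alone or combined with other agents. Top concentrations were at or near clinical Cmax (otherwise 10 microM; SN-38 at 1 microM), decreasing in half-log steps.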

[1] = second compound 0.0316 µM, first compound 0.0316 µM
[2] = second compound 0.0316 µM, first compound 0.1 µM
[3] = second compound 0.0316 µM, first compound 0.316 µM
[4] = second compound 0.0316 µM, first compound 1 µM
[5] = second compound 0.0316 µM, first compound 3.16 µM
[6] = second compound 0.0316 µM, first compound 10 µM
[7] = second compound 0.1 µM, first compound 0.0316 µM
[8] = second compound 0.1 µM, first compound 0.1 µM
[9] = second compound 0.1 µM, first compound 0.316 µM
[10] = second compound 0.1 µM, first compound 1 µM
[11] = second compound 0.1 µM, first compound 3.16 µM
[12] = second compound 0.1 µM, first compound 10 µM
[13] = second compound 0.316 µM, first compound 0.0316 µM
[14] = second compound 0.316 µM, first compound 0.1 µM
[15] = second compound 0.316 µM, first compound 0.316 µM
[16] = second compound 0.316 µM, first compound 1 µM
[17] = second compound 0.316 µM, first compound 3.16 µM
[18] = second compound 0.316 µM, first compound 10 µM
[19] = second compound 1 µM, first compound 0.0316 µM
[20] = second compound 1 µM, first compound 0.1 µM
[21] = second compound 1 µM, first compound 0.316 µM
[22] = second compound 1 µM, first compound 1 µM
[23] = second compound 1 µM, first compound 3.16 µM
[24] = second compound 1 µM, first compound 10 µM
[25] = second compound 3.16 µM, first compound 0.0316 µM
[26] = second compound 3.16 µM, first compound 0.1 µM
[27] = second compound 3.16 µM, first compound 0.316 µM
[28] = second compound 3.16 µM, first compound 1 µM
[29] = second compound 3.16 µM, first compound 3.16 µM
[30] = second compound 3.16 µM, first compound 10 µM
[31] = second compound 10 µM, first compound 0.0316 µM
[32] = second compound 10 µM, first compound 0.1 µM
[33] = second compound 10 µM, first compound 0.316 µM
[34] = second compound 10 µM, first compound 1 µM
[35] = second compound 10 µM, first compound 3.16 µM
[36] = second compound 10 µM, first compound 10 µM
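Further: spheroids exposed to compounds for one week before readout.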
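Wherever viability, T/C is given: percent of DMSO vehicle wells luminescence so 100% = untreated viability.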

In the case of `CNCc1ccc(-c2[nH]c3cc(F)cc4c3c2CCNC4=O)cc1` + Nc1ccc(C#CCN(C(=O)Cc2ncc(C(F)(F)F)cc2C(F)(F)F)c2ccc(F)cc2)nn1, the IC50 (second compound 0.0316 µM) is reported as > 10000 nM, the IC50 (second compound 0.1 µM) is reported as > 10000 nM and the IC50 (second compound 0.316 µM) is reported as > 10000 nM. The IC50 (second compound 1 µM) was > 10000 nM, the IC50 (second compound 3.16 µM) was > 10000 nM and the IC50 (second compound 10 µM) was > 10000 nM. It also gave a viability, T/C [1] of 78.7%, a viability, T/C [2] of 93.6% and a viability, T/C [3] of 77.7%. It also gave a viability, T/C [4] of 104%, a viability, T/C [5] of 78.8% and a viability, T/C [6] of 76.6%. For the same compound, the viability, T/C [7] was 106%, the viability, T/C [8] was 87.5% and the viability, T/C [9] was 92.4%. It also gave a viability, T/C [10] of 107%, a viability, T/C [11] of 80.6% and a viability, T/C [12] of 82.8%. For the same compound, the viability, T/C [13] was 87.4%, the viability, T/C [14] was 109% and the viability, T/C [15] was 97.1%. For the same compound, the viability, T/C [16] was 101%, the viability, T/C [17] was 72.1% and the viability, T/C [18] was 79.5%. It also gave a viability, T/C [19] of 89.4%, a viability, T/C [20] of 89.9% and a viability, T/C [21] of 93%. It also gave a viability, T/C [22] of 91.9%, a viability, T/C [23] of 73.5% and a viability, T/C [24] of 63%. For the same compound, the viability, T/C [25] was 100%, the viability, T/C [26] was 96.4% and the viability, T/C [27] was 105%. For the same compound, the viability, T/C [28] was 89.7%, the viability, T/C [29] was 87.4% and the viability, T/C [30] was 81.9%. It also gave a viability, T/C [31] of 96.1%, a viability, T/C [32] of 109% and a viability, T/C [33] of 89.8%. For the same compound, the viability, T/C [34] was 64.7%, the viability, T/C [35] was 79% and the viability, T/C [36] was 69%.
In the case of `Cn1ncnc1[C@H]1c2n[nH]c(=O)c3cc(F)cc(c23)N[C@@H]1c1ccc(F)cc1` + COC1C(OC(N)=O)C(O)C(Oc2ccc3c(O)c(NC(=O)c4ccc(O)c(CC=C(C)C)c4)c(=O)oc3c2C)OC1(C)C, the IC50 (second compound 0.0316 µM) is reported as > 100 nM, the IC50 (second compound 0.1 µM) is reported as > 100 nM and the IC50 (second compound 0.316 µM) is reported as > 100 nM. The IC50 (second compound 1 µM) was > 100 nM, the IC50 (second compound 3.16 µM) was > 100 nM and the IC50 (second compound 10 µM) was > 100 nM. For the same compound, the viability, T/C (second compound 0.0316 µM, first compound 0.000316 µM) was 108%, the viability, T/C (second compound 0.0316 µM, first compound 0.001 µM) was 100% and the viability, T/C (second compound 0.0316 µM, first compound 0.00316 µM) was 90%. The viability, T/C (second compound 0.0316 µM, first compound 0.01 µM) was 88.6%, the viability, T/C [1] was 86.6% and the viability, T/C [2] was 83.1%. It also gave a viability, T/C (second compound 0.1 µM, first compound 0.000316 µM) of 119%, a viability, T/C (second compound 0.1 µM, first compound 0.001 µM) of 87.2% and a viability, T/C (second compound 0.1 µM, first compound 0.00316 µM) of 104%. The viability, T/C (second compound 0.1 µM, first compound 0.01 µM) was 87%, the viability, T/C [7] was 88.5% and the viability, T/C [8] was 90.3%. It also gave a viability, T/C (second compound 0.316 µM, first compound 0.000316 µM) of 96.1%, a viability, T/C (second compound 0.316 µM, first compound 0.001 µM) of 104% and a viability, T/C (second compound 0.316 µM, first compound 0.00316 µM) of 98.8%. For the same compound, the viability, T/C (second compound 0.316 µM, first compound 0.01 µM) was 78.9%, the viability, T/C [13] was 87.3% and the viability, T/C [14] was 85.3%. For the same compound, the viability, T/C (second compound 1 µM, first compound 0.000316 µM) was 99%, the viability, T/C (second compound 1 µM, first compound 0.001 µM) was 110% and the viability, T/C (second compound 1 µM, first compound 0.00316 µM) was 100%. The viability, T/C (second compound 1 µM, first compound 0.01 µM) was 85.4%, the viability, T/C [19] was 89.6% and the viability, T/C [20] was 86.6%. The viability, T/C (second compound 3.16 µM, first compound 0.000316 µM) was 98%, the viability, T/C (second compound 3.16 µM, first compound 0.001 µM) was 87.1% and the viability, T/C (second compound 3.16 µM, first compound 0.00316 µM) was 105%. The viability, T/C (second compound 3.16 µM, first compound 0.01 µM) was 100%, the viability, T/C [25] was 89.8% and the viability, T/C [26] was 95.6%. The viability, T/C (second compound 10 µM, first compound 0.000316 µM) was 78.8%, the viability, T/C (second compound 10 µM, first compound 0.001 µM) was 86.2% and the viability, T/C (second compound 10 µM, first compound 0.00316 µM) was 97.1%. The viability, T/C (second compound 10 µM, first compound 0.01 µM) was 92.3%, the viability, T/C [31] was 88.7% and the viability, T/C [32] was 87.7%.
`COc1cccc2c1C(=O)c1c(O)c3c(c(O)c1C2=O)CC(O)(C(=O)CO)CC3OC1CC(N)C(O)C(C)O1` (stereo unspecified) + COC1C(OC(N)=O)C(O)C(Oc2ccc3c(O)c(NC(=O)c4ccc(O)c(CC=C(C)C)c4)c(=O)oc3c2C)OC1(C)C gave an IC50 (second compound 0.0316 µM) of 242 nM, an IC50 (second compound 0.1 µM) of 225 nM and an IC50 (second compound 0.316 µM) of 236 nM. For the same compound, the IC50 (second compound 1 µM) was 250 nM, the IC50 (second compound 3.16 µM) was 217 nM and the IC50 (second compound 10 µM) was 224 nM. For the same compound, the viability, T/C [1] was 60.2%, the viability, T/C [2] was 110% and the viability, T/C [3] was 39.3%. It also gave a viability, T/C [4] of 29.7%, a viability, T/C [5] of 30% and a viability, T/C [6] of 35.5%. It also gave a viability, T/C [7] of 75.5%, a viability, T/C [8] of 94.4% and a viability, T/C [9] of 35.4%. The viability, T/C [10] was 25.3%, the viability, T/C [11] was 28.9% and the viability, T/C [12] was 33.3%. The viability, T/C [13] was 67.5%, the viability, T/C [14] was 102% and the viability, T/C [15] was 38.1%. For the same compound, the viability, T/C [16] was 26.9%, the viability, T/C [17] was 26.9% and the viability, T/C [18] was 30.9%. It also gave a viability, T/C [19] of 71.2%, a viability, T/C [20] of 104% and a viability, T/C [21] of 40.3%. The viability, T/C [22] was 21.8%, the viability, T/C [23] was 26.9% and the viability, T/C [24] was 29.5%. The viability, T/C [25] was 54.5%, the viability, T/C [26] was 107% and the viability, T/C [27] was 35%. It also gave a viability, T/C [28] of 23.9%, a viability, T/C [29] of 25.6% and a viability, T/C [30] of 38.9%. For the same compound, the viability, T/C [31] was 56.1%, the viability, T/C [32] was 106% and the viability, T/C [33] was 36.8%. For the same compound, the viability, T/C [34] was 26.7%, the viability, T/C [35] was 28.9% and the viability, T/C [36] was 29.8%.
